One assay concerns rat liver AMPK. The assay is described as follows: Allosteric activation and inhibition of native rat liver AMPK by AMP and ADP (SAMS peptide kinase assay). In kind it is biochemical. Also on record: IC50/EC50: unit not given beside the values. To be noted: for maximal extent of activation: Discussion (for ADP: rat liver AMPK and human α2β2γ1 complex); for effect of CD73 in the assay on allosteric activation by the nucleotide: AMP 0.3 mM or ADP 1 mM, CD73 550 ng. An excerpt: To study allosteric effects, we initially used a preparation of native rat liver AMPK [4]. While not homogeneous, this preparation has a high specific kinase activity (1.3 µmol/min/mg) and is a combination of the α1, α2, β1, β2 and γ1 subunit isoforms (Supplementary Figure S1). Being from a mammalian source both β subunit isoforms would be N-myristoylated and we have shown previously that the preparation is not contaminated with any protein phosphatases that dephosphorylate Thr172 [4]. We assessed the potential allosteric effects of both AMP and ADP at three different concentrations of ATP. We maintained Mg^2+ ions at a constant 4.8 mM excess above total ATP, a design that ensures that the concentration of the Mg.ATP^2− complex varies as a fixed proportion of total ATP [19].
As previously reported, with AMP we obtained bell-shaped curves due to activation at low concentrations combined with inhibition at higher concentrations (Figure 1). We have previously shown that the allosteric activation is due to binding of AMP to one or more of the regulatory sites on the γ subunit, whereas the inhibition is due to binding of AMP at the catalytic site within the α subunit kinase domain [4]. Consistent with the fact that ATP competes with AMP at both sites, as the ATP concentration was progressively raised from 0.2 to 1.0 and 5 mM, the bell-shaped curves shifted to the right, towards higher concentrations of AMP. The data were fitted to an equation for activation at one site and inactivation at a second site, as detailed in the legend to Figure 1. The best-fit parameters are shown in Supplementary Table S1, and these values were used to draw the curves in Figure 1A–C; the best-fit estimates for EC50 and IC50 are indicated by dashed vertical lines, faint lines for AMP and heavier lines for ADP.
Figure 1. Allosteric activation of rat liver AMPK by AMP and ADP at three different concentrations of ATP. (A) 200 µM ATP; (B) 1 mM ATP; (C) 5 mM ATP. [Mg^2+] was maintained at a constant excess of 4.8 mM above [ATP] as recommended previously. Results (mean ± SD, n = 2) were fitted to the equation: Y = 1 + (((Activation-1) × X)/(EC50 + X))-(((activation) × X)/(IC50 + X)), where Y is the activity, X is the concentration of AMP or ADP, Activation is the extrapolated maximal activation by AMP or ADP, EC50 is the concentration of AMP or ADP causing half-maximal activation, and IC50 is the concentration of AMP or ADP causing half-maximal inhibition. The dashed vertical lines show the estimated EC50 and IC50 values, faint lines for AMP and bold lines for ADP. A reliable estimate of EC50 could not be computed for ADP at 0.2 mM ATP (graph (A)). Best-fit values of all parameters used to generate the curves are listed in Supplementary Table S1.
Figure 2. Allosteric activation of rat liver AMPK by AMP and ADP in the presence and absence of the nucleotidase CD73. Allosteric activation was assessed as in Figure 1 with a single fixed concentration of AMP or ADP (0.3 or 1 mM respectively) in the presence or absence of CD73 (550 ng). Statistical significance of differences in results (mean ± SEM, n = 3) were assessed by two-way ANOVA. Effect of nucleotide: ****P < 0.0001; effect of CD73: ^††††P < 0.0001, ns, not significant.
AMPK assays measured the transfer of radioactivity from [γ-^33P]ATP to a peptide substrate, which was separated from unreacted ATP by binding to P81 paper. This assay was described previously except that we used [γ-^33P] rather than [γ-^32P]ATP. In some assays (specified in Figure legends) the concentration of ATP was increased from 0.2 to 1 or 5 mM ATP, with MgCl2 concentrations maintained at a constant 4.8 mM excess above the concentration of ATP [19]. Where allosteric activation by AMP or ADP was being studied, we used the SAMS peptide as substrate. For all other assays the AMARA peptide was used.

The target in assay [1] is T1, human α2β2γ1 complex, CBS1 mutant (L129D/V130D) (Homo sapiens, UniProt P54619+P54646, L129D/V130D).
T1 construct: made in house; host or cells: Escherichia coli
Description: AMPK activation and Thr172 phosphorylation by the LKB1 complex, CBS1 mutant. The class given is biochemical. To be noted: 300 µM nucleotide, 200 µM ATP. On the procedure:
The relative roles of the three CBS sites in the other two mechanisms of activation of AMPK by AMP or ADP, i.e. promotion of Thr172 phosphorylation by LKB1, and protection against Thr172 dephosphorylation by protein phosphatases, have not been examined previously. As expected, incubation of the α2β2γ1 AMPK complex with a fixed, limiting amount of purified LKB1:STRADα:MO25α complex in the presence of 200 µM Mg.ATP^2− caused a large degree of activation (Figure 5A) and phosphorylation (Figure 5B) of AMPK (unphosphorylated α2β2γ1 complex), which were stimulated more than 2-fold by 300 µM AMP and 1.6-fold by 300 µM ADP.
Figure 5. Effects of AMP or ADP on AMPK activation and Thr172 phosphorylation by the LKB1:STRADα:MO25α complex. Unphosphorylated human α2β2γ1 complexes (WT, or with L129D/V130D, V276G/L277G or I312G mutations affecting CBS1, CBS3 or CBS4 respectively) were incubated with ATP and a fixed concentration of the LKB1:STRADα:MO25α complex in the presence or absence of AMP or ADP (both 300 µM), as described in the Materials and methods section. After the incubation aliquots were withdrawn for (A) AMPK assay or (B) Western blots. […] For (B), due to a limit on the number of lanes that could be run on one gel, single replicates from the triplicate assays were analysed. […]

“And” between values parts separate entries of the source, which are not always exact repeats. Equal values may be shown once.

T1 sequence (P54619 whole entry L129D/V130D): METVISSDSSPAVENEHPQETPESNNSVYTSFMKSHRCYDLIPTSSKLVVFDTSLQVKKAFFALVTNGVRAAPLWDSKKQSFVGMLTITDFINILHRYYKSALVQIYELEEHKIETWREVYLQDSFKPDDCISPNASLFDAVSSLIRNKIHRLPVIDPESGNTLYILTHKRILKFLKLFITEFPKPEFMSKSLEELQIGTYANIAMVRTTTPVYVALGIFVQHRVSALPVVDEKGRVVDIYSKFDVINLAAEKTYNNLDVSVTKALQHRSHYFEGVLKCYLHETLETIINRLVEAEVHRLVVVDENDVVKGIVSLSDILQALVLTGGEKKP
T1 sequence (P54646 whole entry): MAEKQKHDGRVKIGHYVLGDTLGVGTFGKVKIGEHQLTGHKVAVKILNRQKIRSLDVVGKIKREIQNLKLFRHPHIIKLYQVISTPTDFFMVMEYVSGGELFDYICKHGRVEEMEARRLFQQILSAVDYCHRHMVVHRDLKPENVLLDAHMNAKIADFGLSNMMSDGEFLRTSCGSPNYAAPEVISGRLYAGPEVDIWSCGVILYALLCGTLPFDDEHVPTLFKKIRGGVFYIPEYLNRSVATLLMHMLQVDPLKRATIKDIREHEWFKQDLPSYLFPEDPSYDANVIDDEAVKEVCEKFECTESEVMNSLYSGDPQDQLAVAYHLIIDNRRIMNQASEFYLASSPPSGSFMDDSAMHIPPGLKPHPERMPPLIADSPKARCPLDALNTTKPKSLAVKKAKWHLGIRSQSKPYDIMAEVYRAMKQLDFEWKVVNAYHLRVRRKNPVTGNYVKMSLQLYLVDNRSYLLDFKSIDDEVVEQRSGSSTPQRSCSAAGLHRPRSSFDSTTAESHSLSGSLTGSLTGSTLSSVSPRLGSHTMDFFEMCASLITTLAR
T1 sequence (O43741 whole entry partner): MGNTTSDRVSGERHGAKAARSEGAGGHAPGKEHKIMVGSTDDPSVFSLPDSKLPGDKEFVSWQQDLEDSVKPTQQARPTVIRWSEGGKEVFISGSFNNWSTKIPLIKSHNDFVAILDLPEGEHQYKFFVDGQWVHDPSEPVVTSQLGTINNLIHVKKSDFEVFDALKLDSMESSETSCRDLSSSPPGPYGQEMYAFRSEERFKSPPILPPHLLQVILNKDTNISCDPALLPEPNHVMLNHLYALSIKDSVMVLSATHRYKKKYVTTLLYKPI

One may read the IC50 as the midpoint of a concentration-inhibition curve. The term EC50 denotes the concentration needed to bring the measured effect to its halfway point. On to `Nc1ncnc2c1ncn2[C@@H]1O[C@H](COP(=O)(O)OP(=O)(O)O)[C@@H](O)[C@H]1O` [ADP], for which the “maximal extent of activation” value in the assay on rat liver AMPK (5 mM ATP) is on record as “≈ 1.5 fold”. Moreover, in the assay with rat liver AMPK (rat liver AMPK, 0.2 mM ATP), the “Activation (extrapolated maximal activation)” value is “no activation was detectable and none”; the IC50 was 400 µM. The “observed maximal extent of activation above basal” value in the assay with rat liver AMPK (rat liver AMPK, 1 mM ATP) is on record as “≈ 25%”. For the same molecule, in the assay with rat liver AMPK (rat liver AMPK, 1.0 mM ATP), the “Activation (extrapolated maximal activation)” value is 2.4 fold and 2.4 (1.8 -??) fold; the EC50 was 122 µM; the IC50 was determined as 690 µM; the IC50/EC50 is 6 and 5.7. In addition, the “observed maximal extent of activation above basal” value with rat liver AMPK (rat liver AMPK, 5 mM ATP) is listed as “≈ 50%”. In addition, in the assay with rat liver AMPK (rat liver AMPK, 5.0 mM ATP), the “Activation (extrapolated maximal activation)” value was 2.0 fold and 2.0 (1.7 -2.8) fold; the EC50 turned out to be 220 µM; the IC50 amounted to 4000 µM; the IC50/EC50 is recorded as 18. Moreover, the “effect of CD73 in the assay on allosteric activation by the nucleotide” value in the assay with rat liver AMPK (rat liver AMPK) is reported as “did not significantly affect”. The “effect of nucleotide on activation/phosphorylation by LKB1 in the mutant” value in assay [1] is reported as “unaffected”.
Consider `Nc1ncnc2c1ncn2[C@@H]1O[C@H](COP(=O)(O)O)[C@@H](O)[C@H]1O` [AMP], for which the “maximal extent of activation” value in the assay with rat liver AMPK (5 mM ATP) amounted to 3 fold. In the assay with rat liver AMPK (rat liver AMPK, 0.2 mM ATP), the “Activation (extrapolated maximal activation)” value was 2.9 (2.8 -3.0) fold, the EC50 turned out to be 6.4 µM, the IC50 was found to be 1700 µM and the IC50/EC50 is listed as 270. In addition, in the assay with rat liver AMPK (rat liver AMPK, 1.0 mM ATP), the “Activation (extrapolated maximal activation)” value is given as 2.8 (2.7-2.9) fold, the EC50 is 14 µM, the IC50 stood at 6900 µM and the IC50/EC50 is reported as 490. Moreover, in the assay on rat liver AMPK (rat liver AMPK, 5.0 mM ATP), the “Activation (extrapolated maximal activation)” value is given as 3.7 (3.5-3.8) fold; the concentration giving a half-maximal response (EC50) was determined as 36 µM; the IC50 is 17000 µM; the IC50/EC50 is ~500 and 470. Besides, the “degree of activation over basal” value in the assay with rat liver AMPK (rat liver AMPK, 0.2 to 5 mM ATP) is listed as 3- to 4 fold. Besides, in the assay on rat liver AMPK (rat liver AMPK), the “effect of CD73 in the assay on allosteric activation by the nucleotide” value is “completely abolished”. The “effect of nucleotide on activation/phosphorylation by LKB1 in the mutant” value in assay [1] was “unaffected”.

(Values after publication PMC11088877, “AMP-activated protein kinase can be allosterically activated by ADP but AMP remains the key activating ligand” (Biochemical Journal, 2024).)
